Results reported in ChEMBL document CHEMBL1201862, “PubChem BioAssay data set” (2004).
Values belong to the compound of their own block, whether it stands above or below them. Activity calls are given as the source filed them.

Legend:
[1] = biological target: Voltage-dependent T-type calcium channel subunit alpha-1H (Homo sapiens, UniProt O95180); test: human CACNA1H calcium influx blockade – cell-based, synthetic library set 1, calcium flux (AID 493022); assay type: functional
[2] = biological target: Glyceraldehyde-3-phosphate dehydrogenase (Homo sapiens, UniProt P04406)
[3] = biological target: Alkaline phosphatase, placental type (Homo sapiens, UniProt P05187); test: human placental alkaline phosphatase inhibition – biochemical, luminescence, confirmation (AID 1512); assay type: functional
[4] = biological target: T1, Alkaline phosphatase, tissue-nonspecific isozyme (Homo sapiens, UniProt P05186); test: potency against alkaline phosphatase TNAP – biochemical, luminescent, dose response, SAR follow-up (AID 1056)
T1 sequence (P05186 whole entry): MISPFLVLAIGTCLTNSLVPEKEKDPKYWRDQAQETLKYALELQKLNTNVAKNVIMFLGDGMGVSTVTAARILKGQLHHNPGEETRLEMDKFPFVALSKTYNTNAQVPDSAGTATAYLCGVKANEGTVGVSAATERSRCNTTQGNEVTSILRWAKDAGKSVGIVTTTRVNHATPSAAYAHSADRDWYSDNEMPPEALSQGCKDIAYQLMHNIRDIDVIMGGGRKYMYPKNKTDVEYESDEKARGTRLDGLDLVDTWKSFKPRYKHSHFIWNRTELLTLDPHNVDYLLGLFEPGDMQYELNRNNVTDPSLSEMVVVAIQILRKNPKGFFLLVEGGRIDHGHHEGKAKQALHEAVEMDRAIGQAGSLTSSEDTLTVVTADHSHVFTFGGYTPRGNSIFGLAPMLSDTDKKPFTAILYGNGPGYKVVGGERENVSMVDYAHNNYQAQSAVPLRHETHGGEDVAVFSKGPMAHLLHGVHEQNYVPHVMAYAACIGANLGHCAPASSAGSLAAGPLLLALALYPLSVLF

[5] = biological target: T2, Kappa-type opioid receptor (Homo sapiens, UniProt P41145); test: kappa opioid receptor activation by imaging – image-based, set 3, SAR follow-up (AID 488833); assay type: functional
Mu-type opioid receptor = Mu-type opioid receptor (Homo sapiens, UniProt P35372); test: SAR Analysis of Agonists of the MOR Receptor using an Image-Based Assay - Set 3. [Related pubchem assays (depositor defined):AID1777, AID1785, AID1786, AID1966, AID2133, AID2136, AID2284, AID2285, AID2352]; assay type: functional
[6] = biological target: Delta-type opioid receptor (Homo sapiens, UniProt P41143); test: SAR Analysis of Agonists of the DOR Receptor using an Image-Based Assay - Set 3. [Related pubchem assays (depositor defined):AID1777, AID1786]; assay type: functional
[7] = biological target: T2, Kappa-type opioid receptor; test: SAR analysis of small molecule agonists of the kappa opioid receptor via a luminescent beta-arrestin assay - Set 3. [Related pubchem assays (depositor defined):AID1777, AID1785, AID1786, AID1966, AID2133, AID2136, AID2284, AID2500]; assay type: functional
ORF 73 = ORF 73 (Human herpesvirus 8, UniProt O40947); test: KSHV LANA DNA-binding disruption – biochemical, fluorescence polarization, cherry-picked samples, dose response (AID 504725); design: species or system Human gammaherpesvirus 8;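 note: fluorescence polarization of a labeled DNA duplex reporting LANA DNA binding; potency is for inhibitors that block LANA binding to the DNA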
Keap1/Nrf2 = Keap1/Nrf2 (Homo sapiens, UniProt Q14145); test: disruptors of Keap1 binding to Nrf2 peptide – biochemical, fluorescence polarization, cherry-picked samples, dose response (AID 588683)
[8] = biological target: T3, Rac GTPase-activating protein 1 (Homo sapiens, UniProt Q9H0H5); test: blockers of MgcRacGAP-driven Rac1 GTP hydrolysis – biochemical, ADP Hunter fluorescence, primary and confirmatory, confirmation (AID 624330); assay type: functional
T3 sequence (Q9H0H5 whole entry): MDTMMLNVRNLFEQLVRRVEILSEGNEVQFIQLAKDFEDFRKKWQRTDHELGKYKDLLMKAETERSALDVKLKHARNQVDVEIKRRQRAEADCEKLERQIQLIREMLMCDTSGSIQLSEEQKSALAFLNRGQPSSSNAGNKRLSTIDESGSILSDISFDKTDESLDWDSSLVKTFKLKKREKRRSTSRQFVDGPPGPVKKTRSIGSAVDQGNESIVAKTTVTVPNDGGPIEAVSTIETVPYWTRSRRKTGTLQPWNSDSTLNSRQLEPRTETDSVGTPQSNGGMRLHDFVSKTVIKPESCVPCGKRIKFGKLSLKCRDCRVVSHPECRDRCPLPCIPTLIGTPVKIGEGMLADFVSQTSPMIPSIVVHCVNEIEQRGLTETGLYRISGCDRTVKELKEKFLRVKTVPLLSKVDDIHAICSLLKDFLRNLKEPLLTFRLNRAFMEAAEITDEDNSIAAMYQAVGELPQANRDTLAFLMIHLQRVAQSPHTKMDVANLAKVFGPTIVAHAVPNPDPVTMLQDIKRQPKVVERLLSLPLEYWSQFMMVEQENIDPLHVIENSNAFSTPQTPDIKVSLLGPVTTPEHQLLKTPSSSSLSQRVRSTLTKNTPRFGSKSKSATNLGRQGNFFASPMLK

Protein Tat = biological target: T4, Protein Tat (Human immunodeficiency virus type 1 group M subtype B (isolate HXB2)(HIV-1), UniProt P04608); assay type: functional;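 note: tat binding to TAR RNA read out by fluorescence polarization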
T4 sequence (P04608 whole entry): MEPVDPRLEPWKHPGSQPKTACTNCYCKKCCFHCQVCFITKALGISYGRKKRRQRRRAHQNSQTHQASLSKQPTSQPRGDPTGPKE

MDA-MB-435 = test: cells; assay type: functional, cell-based; settings: Homo sapiens
cells = assay type: functional, cell-based; settings: PPC-1
[9] = biological target: T5, Voltage-gated N-type calcium channel alpha-1B subunit/Amyloid beta A4 precursor protein-binding family A member 1 (Homo sapiens, UniProt Q00975+Q02410); assay type: protein assay
Large T antigen = Large T antigen (Simian virus 40, UniProt P03070); assay type: functional, Betapolyomavirus macacae;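 note: Confirmatory-stage PubChem screen for compounds that inhibit SV40 T antigen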
[10] = biological target: T5, Voltage-gated N-type calcium channel alpha-1B subunit/Amyloid beta A4 precursor protein-binding family A member 1; assay type: protein assay; remark: listed apart in the source
[11] = biological target: Glucose-6-phosphate 1-dehydrogenase (Homo sapiens, UniProt P11413); test: inhibition of Homo sapiens G6PD, dose series – biochemical, fluorescence, selectivity assay for P. falciparum G6PD inhibitor project, dose response (AID 504792); assay type: functional
[12] = Fluorescence-based cell-based high throughput dose response assay for inhibitors of the interaction of nucleotide-binding oligomerization domain containing 2 (NOD2) and the receptor-interacting serine-threonine kinase 2 (RIPK2).; assay type: functional; settings: Homo sapiens
Beta Lactamase = Beta Lactamase (Pseudomonas aeruginosa, UniProt Q932Y6); test: BLA reporter interference, concentration series – BLA reporter cells, FRET fluorescence, artefact control for NOD2-RIPK2 interaction inhibitor project, dose response (AID 651552); assay type: functional, cell-based
Neutrophil collagenase = Neutrophil collagenase (Homo sapiens, UniProt P22894); test: potency against MMP13, MMP2, MMP3, MMP14 – biochemical, probe development, late stage results, selectivity assay for MMP13 inhibitor project, late-stage follow-up, panel member MMP-8 [IC50 Assay] (AID 2067)
Beta-galactosidase = Beta-galactosidase (Escherichia coli, UniProt Q8VNN2); test: detection-enzyme interference by beta-gal modulators – biochemical, E. coli enzyme, set 3, artefact control for CCR6 antagonist project, dose response (AID 504712); assay type: functional
[13] = reduction of Shn3 3'UTR-driven luciferase in osteoblasts – cell-based, Clone20 osteoblasts, firefly luciferase, cherry-picked, dose response (AID 624132); assay type: functional;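 note: firefly luciferase luminescence from reporter carrying the Shn3 3'UTR in osteoblasts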
[14] = loss of viability in HepG2 cells – cell-based, CellTiter-Glo, cherry-picked, cytotoxicity control for Shn3 inhibitor project, dose response (AID 624134); assay type: functional
Paired box protein Pax-8 = Paired box protein Pax-8 (Homo sapiens, UniProt Q06710); test: PAX8 transcriptional activity inhibition in RMG-I – RMG-I cells, luciferase, cherry-pick, dose response (AID 687027); assay type: functional, cell-based;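 note: luciferase reporter driven by Pax8 target thyroperoxidase promoter measured by SteadyGlo luminescence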
[15] = general cell-killing toxicity readout – plate reader, dry powder samples, cytotoxicity control for PAX8 inhibitor project, dose response (AID 743021); assay type: functional, cell-based
Bcl-2-like protein 10 = Bcl-2-like protein 10 (Homo sapiens, UniProt Q9HD36); test: Bcl-B/TR3 peptide binding disruption – biochemical, fluorescence polarization, FITC-TR3 peptide, selectivity assay for Bfl-1 inhibitor project, primary screen (AID 748);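 note: fluorescence polarization from a fluorescein-labelled TR3 peptide binding purified Bcl-B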
[16] = biological target: T6, DNA repair and recombination protein RAD54-like (Homo sapiens, UniProt Q92698); test: RAD54 Holliday junction migration blockers – biochemical, fluorescence, cherry-picked samples, dose series, confirmation (AID 651657); assay type: functional
T6 sequence (Q92698 whole entry): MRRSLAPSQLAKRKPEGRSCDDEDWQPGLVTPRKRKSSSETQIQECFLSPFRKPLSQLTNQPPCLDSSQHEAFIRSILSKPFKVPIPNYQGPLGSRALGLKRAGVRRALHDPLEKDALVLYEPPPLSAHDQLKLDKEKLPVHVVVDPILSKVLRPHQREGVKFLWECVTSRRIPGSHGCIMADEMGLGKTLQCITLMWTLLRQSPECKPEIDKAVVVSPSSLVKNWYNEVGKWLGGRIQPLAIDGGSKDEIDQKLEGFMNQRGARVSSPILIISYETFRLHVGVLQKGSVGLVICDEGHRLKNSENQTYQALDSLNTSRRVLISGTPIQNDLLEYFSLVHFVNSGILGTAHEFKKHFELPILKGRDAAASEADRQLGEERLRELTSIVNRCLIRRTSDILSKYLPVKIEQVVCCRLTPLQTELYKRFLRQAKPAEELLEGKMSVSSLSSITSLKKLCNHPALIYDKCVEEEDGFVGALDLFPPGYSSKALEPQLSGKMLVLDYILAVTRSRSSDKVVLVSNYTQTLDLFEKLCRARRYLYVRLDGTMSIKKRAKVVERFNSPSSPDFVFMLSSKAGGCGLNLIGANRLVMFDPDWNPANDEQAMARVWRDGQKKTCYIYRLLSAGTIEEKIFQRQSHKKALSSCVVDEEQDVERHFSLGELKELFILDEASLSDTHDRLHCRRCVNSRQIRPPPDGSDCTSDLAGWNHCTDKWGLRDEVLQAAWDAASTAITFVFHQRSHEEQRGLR

T2 sequence (P41145 whole entry): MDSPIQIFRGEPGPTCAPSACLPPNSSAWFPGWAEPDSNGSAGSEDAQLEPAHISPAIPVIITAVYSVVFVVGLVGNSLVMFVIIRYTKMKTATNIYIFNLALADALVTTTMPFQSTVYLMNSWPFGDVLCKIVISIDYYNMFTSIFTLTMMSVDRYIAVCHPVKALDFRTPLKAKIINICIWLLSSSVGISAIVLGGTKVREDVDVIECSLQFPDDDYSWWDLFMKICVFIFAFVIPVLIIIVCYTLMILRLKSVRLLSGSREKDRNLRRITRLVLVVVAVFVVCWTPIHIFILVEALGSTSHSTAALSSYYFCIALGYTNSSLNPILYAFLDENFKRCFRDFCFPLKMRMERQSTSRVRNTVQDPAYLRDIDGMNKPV
T5 sequence (Q00975 whole entry): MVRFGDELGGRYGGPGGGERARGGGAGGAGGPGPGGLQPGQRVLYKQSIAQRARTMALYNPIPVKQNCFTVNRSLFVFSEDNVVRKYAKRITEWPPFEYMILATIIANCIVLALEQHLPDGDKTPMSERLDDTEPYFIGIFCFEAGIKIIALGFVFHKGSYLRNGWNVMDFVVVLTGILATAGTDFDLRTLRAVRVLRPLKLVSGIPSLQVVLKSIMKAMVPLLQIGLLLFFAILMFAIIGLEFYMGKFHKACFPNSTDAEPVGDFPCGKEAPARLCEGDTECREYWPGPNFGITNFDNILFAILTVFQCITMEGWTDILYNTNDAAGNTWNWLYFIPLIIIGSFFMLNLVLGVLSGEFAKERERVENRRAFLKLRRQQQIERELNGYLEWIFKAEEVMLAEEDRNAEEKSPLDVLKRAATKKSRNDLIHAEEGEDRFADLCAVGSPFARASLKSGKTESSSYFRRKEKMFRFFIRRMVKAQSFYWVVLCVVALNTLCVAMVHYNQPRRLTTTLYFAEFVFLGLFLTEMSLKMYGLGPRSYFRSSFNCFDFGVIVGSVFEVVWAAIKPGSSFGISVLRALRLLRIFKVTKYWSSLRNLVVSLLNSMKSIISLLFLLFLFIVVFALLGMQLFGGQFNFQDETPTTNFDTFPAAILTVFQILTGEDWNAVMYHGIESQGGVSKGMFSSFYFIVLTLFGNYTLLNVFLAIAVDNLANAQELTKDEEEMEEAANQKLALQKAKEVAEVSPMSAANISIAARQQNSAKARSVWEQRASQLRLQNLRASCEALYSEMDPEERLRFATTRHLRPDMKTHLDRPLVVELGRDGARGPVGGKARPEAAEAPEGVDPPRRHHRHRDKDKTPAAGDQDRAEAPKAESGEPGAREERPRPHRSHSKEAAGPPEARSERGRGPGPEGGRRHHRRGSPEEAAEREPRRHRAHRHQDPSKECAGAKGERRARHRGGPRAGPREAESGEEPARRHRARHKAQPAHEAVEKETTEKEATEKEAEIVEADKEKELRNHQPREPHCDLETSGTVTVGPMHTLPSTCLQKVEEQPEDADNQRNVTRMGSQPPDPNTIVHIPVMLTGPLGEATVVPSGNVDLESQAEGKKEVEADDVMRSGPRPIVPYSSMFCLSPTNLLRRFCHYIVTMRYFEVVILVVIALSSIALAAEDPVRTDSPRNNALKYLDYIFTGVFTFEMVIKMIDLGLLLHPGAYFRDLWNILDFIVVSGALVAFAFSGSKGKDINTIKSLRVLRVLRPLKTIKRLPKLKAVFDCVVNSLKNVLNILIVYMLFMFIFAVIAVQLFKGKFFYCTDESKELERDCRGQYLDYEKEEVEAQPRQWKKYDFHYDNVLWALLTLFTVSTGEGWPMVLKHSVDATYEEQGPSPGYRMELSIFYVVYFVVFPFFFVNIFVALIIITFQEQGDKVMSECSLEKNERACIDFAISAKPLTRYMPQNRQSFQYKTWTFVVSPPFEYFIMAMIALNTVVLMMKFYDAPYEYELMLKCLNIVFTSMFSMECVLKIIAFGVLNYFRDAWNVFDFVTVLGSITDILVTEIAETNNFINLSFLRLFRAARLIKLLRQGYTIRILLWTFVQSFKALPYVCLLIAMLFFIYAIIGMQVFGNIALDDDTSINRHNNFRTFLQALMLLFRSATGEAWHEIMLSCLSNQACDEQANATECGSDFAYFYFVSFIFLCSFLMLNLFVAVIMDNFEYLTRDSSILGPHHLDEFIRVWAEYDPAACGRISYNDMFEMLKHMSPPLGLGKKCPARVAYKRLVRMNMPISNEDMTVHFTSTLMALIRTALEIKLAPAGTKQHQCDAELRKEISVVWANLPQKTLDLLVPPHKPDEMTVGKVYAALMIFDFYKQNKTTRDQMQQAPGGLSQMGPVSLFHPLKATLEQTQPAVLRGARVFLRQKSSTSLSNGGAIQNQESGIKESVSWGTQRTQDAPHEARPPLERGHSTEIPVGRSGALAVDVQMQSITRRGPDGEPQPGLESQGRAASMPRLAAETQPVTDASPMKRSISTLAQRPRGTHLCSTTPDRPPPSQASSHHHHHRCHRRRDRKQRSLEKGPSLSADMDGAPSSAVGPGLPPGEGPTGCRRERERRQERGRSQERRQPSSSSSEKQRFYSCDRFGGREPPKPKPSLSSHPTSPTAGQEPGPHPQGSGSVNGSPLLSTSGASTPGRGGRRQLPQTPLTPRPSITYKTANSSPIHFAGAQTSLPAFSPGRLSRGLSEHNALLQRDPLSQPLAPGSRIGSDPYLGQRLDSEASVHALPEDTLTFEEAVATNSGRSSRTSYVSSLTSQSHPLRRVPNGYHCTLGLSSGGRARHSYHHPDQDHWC
T5 sequence (Q02410 whole entry): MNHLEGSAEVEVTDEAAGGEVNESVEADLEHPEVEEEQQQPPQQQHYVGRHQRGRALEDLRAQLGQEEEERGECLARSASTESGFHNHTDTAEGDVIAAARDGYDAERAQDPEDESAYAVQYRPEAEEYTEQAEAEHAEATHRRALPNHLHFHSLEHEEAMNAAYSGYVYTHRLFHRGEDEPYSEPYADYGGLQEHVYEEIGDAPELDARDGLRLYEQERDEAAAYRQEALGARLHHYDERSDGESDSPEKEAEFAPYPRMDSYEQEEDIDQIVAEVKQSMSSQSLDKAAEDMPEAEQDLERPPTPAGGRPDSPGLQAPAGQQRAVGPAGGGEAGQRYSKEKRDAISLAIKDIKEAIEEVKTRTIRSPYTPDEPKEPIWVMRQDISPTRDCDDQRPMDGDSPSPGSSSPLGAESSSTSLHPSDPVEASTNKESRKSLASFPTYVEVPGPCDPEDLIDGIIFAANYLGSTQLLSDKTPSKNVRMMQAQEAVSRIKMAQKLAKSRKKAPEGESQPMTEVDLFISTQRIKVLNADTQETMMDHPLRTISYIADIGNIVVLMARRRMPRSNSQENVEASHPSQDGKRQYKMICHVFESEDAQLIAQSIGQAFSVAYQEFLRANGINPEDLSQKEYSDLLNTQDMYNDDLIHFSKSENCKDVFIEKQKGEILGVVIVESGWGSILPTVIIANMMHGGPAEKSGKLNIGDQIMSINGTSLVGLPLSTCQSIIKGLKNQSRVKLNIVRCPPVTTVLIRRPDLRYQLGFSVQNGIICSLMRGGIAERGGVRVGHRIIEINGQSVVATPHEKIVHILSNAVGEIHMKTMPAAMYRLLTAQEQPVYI
Sequence of Large T antigen (P03070 whole entry): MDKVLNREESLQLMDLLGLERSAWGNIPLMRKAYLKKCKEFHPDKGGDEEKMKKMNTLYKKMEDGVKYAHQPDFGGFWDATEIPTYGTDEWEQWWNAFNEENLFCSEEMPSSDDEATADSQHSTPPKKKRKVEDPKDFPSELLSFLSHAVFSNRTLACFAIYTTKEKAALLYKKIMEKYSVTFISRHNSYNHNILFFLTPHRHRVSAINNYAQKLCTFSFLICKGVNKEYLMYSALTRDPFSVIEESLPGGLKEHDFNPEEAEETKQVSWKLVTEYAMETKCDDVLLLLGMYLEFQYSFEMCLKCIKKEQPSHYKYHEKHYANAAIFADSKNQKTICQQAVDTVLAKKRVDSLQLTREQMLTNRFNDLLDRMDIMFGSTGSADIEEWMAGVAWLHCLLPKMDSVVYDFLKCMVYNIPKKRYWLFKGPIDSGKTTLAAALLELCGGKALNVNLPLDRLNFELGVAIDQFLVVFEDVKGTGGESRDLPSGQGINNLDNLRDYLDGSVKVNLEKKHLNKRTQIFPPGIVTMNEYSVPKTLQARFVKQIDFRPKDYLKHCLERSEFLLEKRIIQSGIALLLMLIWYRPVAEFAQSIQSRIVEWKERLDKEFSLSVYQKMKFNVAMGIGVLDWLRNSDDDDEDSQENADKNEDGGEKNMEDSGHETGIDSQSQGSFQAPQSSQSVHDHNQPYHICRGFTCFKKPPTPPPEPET
Sequence of Bcl-2-like protein 10 (Q9HD36 whole entry): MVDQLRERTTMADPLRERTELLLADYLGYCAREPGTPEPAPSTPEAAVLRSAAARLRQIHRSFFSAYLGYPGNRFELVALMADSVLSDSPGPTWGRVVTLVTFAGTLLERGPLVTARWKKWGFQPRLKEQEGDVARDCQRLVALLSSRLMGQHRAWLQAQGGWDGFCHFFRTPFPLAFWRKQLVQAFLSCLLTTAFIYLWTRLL
Sequence of Neutrophil collagenase (P22894 whole entry): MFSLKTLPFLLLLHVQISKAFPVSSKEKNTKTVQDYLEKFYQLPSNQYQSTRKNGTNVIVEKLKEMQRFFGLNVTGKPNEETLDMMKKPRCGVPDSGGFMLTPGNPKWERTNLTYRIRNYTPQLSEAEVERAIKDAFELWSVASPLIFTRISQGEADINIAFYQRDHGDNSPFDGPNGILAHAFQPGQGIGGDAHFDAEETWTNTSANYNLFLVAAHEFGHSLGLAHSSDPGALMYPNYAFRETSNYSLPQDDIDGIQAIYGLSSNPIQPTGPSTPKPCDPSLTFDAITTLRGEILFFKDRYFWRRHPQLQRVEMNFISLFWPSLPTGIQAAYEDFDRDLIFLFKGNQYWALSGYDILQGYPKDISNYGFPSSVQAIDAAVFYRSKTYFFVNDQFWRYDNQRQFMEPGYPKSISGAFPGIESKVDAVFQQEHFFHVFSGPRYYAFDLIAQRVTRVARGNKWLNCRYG

Compound: N#Cc1ccc(CSc2nnc(-c3ccccn3)n2Cc2ccco2)cc1
- EC50 [5]: 19.3 µM (inactive)
- EC50 (Mu-type opioid receptor): > 32 µM (inactive)
- EC50 [6]: > 64 µM (inactive)
- EC50 [7]: 6.79 µM (active)

Compound: COc1cc(-c2ccccc2)nc(S)n1
- IC50 (MDA-MB-435): > 10 µM (inactive)
- IC50 (cells): > 10 µM (inactive)

Compound: N#C/C(C(=O)Nc1ccc(Cl)cc1)=C(/S)Nc1ccccc1
- IC50 [9]: 25.5 µM (active)
- IC50 (Large T antigen): 16.5 µM (active)
- IC50 [10]: 13.9 µM (active)
- IC50 [11]: 52 µM (inactive)
- IC50 [12]: 19.6 µM (inactive)
- IC50 (Beta Lactamase): 49.8 µM (inactive)

Compound: O=C(OCc1ccccc1)N(CCCCN(CCCNCc1ccccc1)C(=O)OCc1ccccc1)CCCNCc1ccccc1
- IC50 (Beta-galactosidase): > 66.6 µM (inactive)
- AC50 [13]: 5.36 µM (active)
- AC50 [14]: 4.16 µM (active)
- AC50 (Paired box protein Pax-8): 9.11 µM (active)
- AC50 [15]: 10.3 µM (active)

Other lines, results leading:

- EC50 [1]: 2.4 µM (active)
Compound: O=C(COc1ccc(F)c(Cl)c1)Nc1nnc(-c2ccc3c(c2)CCCC3)o1

- IC50 [2]: > 100 µM (not active)
- IC50 [3]: > 100 µM (inactive)
- IC50 [4]: 1.08 µM (active)
Compound: CC(C)(C)NC(=O)c1cc(-c2cc(F)c(Cl)cc2Cl)n[nH]1

- AC50 (ORF 73): 10 µM (active)
- AC50 (Keap1/Nrf2): 12.3 µM (active)
- IC50 [8]: 35 µM (active)
- IC50 (Protein Tat): 6.32 µM (inconclusive)
Compound: Cc1nc2ccccc2n2c(O)c(CC(=O)O)cc12

- IC50 (Neutrophil collagenase): > 39.8 µM (active)
Compound: Oc1nc(SCc2ccc(Cl)cc2)nc2c1CCC2

- IC50 (Bcl-2-like protein 10): 46.2 µM (active)
- AC50 [16]: 28.9 µM (active)
Compound: CN(C)CCSc1nc(N)c2c3c(sc2n1)CN(C)CC3
